Results published in paper PMC9967275, “Screening the Pathogen Box to Discover and Characterize New Cruzain and TbrCatL Inhibitors” (Pathogens, 2023).

Tests used:
[1] = molecular target: T1, TbrCatL (Trypanosoma brucei rhodesiense, UniProt Q95PM0); assay: TbrCatL enzymatic inhibition assay (cleavage of fluorogenic substrate Z-FR-AMC); format: biochemical; settings: for TbrCatL 0’ Inhibition / TbrCatL 10’ Inhibition: sheet "Screening results"
T1 construct: Conor Caffrey (University of California San Diego)
Procedure, shortened: (§1)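 Recombinant enzymes assayed by Z-Phe-Arg-AMC cleavage at 25 °C, fluorescence 340/440 nm over 5–7 min, with 10 min or no enzyme–compound preincubation.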

[2] = molecular target: cruzain (Trypanosoma cruzi, UniProt P25779); assay: biochemical; settings: for Cruzain 0’ Inhibition / Cruzain 10’ Inhibition: sheet "Screening results"
Procedure, shortened: as §1

[3] = 0’ (pre-incubation time), Pathogen Box screening results
[4] = 10’ (pre-incubation time), Pathogen Box screening results
[5] = 0’ (no pre-incubation), sheet Screening results
[6] = 10’ (pre-incubation), sheet Screening results
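Note: at 5 µM compound concentration.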

cruzain, sequence (P25779 123-337 limits assumed): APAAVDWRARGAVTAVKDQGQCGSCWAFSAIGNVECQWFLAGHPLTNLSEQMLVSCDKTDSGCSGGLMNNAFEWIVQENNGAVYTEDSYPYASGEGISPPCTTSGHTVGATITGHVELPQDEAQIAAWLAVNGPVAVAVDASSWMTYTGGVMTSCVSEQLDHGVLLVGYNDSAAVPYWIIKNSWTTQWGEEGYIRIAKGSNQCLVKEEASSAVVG
T1 sequence (Q95PM0 entry or part of it): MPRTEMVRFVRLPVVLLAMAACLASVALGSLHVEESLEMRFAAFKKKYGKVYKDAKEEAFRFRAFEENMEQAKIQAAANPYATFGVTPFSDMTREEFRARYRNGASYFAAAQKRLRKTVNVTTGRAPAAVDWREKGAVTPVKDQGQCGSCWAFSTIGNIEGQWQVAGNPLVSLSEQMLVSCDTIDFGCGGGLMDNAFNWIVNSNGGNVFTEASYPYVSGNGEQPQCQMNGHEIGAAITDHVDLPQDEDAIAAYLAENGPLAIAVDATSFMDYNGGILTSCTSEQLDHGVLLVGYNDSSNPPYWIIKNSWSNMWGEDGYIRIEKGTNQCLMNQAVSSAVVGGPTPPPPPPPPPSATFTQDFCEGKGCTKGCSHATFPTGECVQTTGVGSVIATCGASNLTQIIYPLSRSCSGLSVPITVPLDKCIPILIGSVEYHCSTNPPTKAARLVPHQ

| SMILES | TbrCatL 0’ Inhibition ([1]; 0’ (pre-incubation time)) | TbrCatL 10’ Inhibition ([1]; 10’ (pre-incubation time)) | Cruzain 0’ Inhibition ([2]; 0’ (pre-incubation time)) | Cruzain 10’ Inhibition ([2]; 10’ (pre-incubation time)) | TbrCatL Inhibition 0’ [1, 5] | TbrCatL Inhibition 10’ [1, 6] | Cruzain Inhibition 0’ [2, 5] | Cruzain Inhibition 10’ [2, 6] | also measured |
| --- | --- | --- | --- | --- | --- | --- | --- | --- | --- |
| O=C(Nc1ccc(F)c(-c2nc3ncc(-c4ccccc4)cc3[nH]2)c1)N1CCCC1 [MMV688372] | -5% | -11% | 4% | 4.3% | – | – | – | – | – |
| COc1cc(C2=NCCN2)ccc1-c1cn(-c2cccc(C3=NCCN3)c2)nn1 [MMV688407] | 14% | 36% | 2.2% | 21% | – | – | – | – | – |
| CC1=Nc2ccc(Cl)cc2C(c2ccccc2)N1CCNC(=O)CN(C)C (centres unmarked) [MMV688410] | -4.7% | -3.5% | -0.5% | 3.8% | – | – | – | – | – |
| Nc1ncnc2c1c(-c1cnc3ccccc3c1)nn2CC1CCNCC1 [MMV688411] | 1.7% | 3.7% | -0.3% | 5.5% | – | – | – | – | – |
| CO[C@@H]1CN(c2ccc(C#CC3(O)CN4CCC3CC4)c(Cc3ccccc3)n2)C[C@H]1O (some centres unmarked) [MMV688415] | – | – | – | – | – | – | – | – | TbrCatL Inhibition 0’ [1, 3]: -8%; TbrCatL Inhibition 10’ [1, 4]: 3%; Cruzain Inhibition 0’ [2, 3]: -4%; Cruzain Inhibition 10’ [2, 4]: 16% |
| CC(C)(C)OC(=O)N1CCN(c2nccc(-c3ccc(-c4ccc(Cl)cc4)s3)n2)CC1 [MMV688416] | – | – | – | – | 22% | 27% | 18% | 18% | – |
| CC(C)n1nc(-c2cc3c(Cl)cccc3[nH]2)c2c(N)ncnc21 [MMV688417] | -11% | -13% | 5.6% | -1.4% | – | – | – | – | – |
| CCCCN(CCCC)c1c(C#N)cc(S(=O)(=O)Nc2ccccc2)cc1C#N [MMV688467] | -4.5% | 8% | -2.2% | 1.8% | – | – | – | – | – |
| Nc1ncnc2n[nH]c(Cc3cccc4ccccc34)c12 [MMV688469] | -8% | -1.7% | -9% | 4.5% | – | – | – | – | – |
| CS(=O)(=O)N1CCC(CCn2nc(Cc3cccc4ccccc34)c3c(N)ncnc32)CC1 [MMV688470] | – | – | – | – | 14% | 9% | 10% | 11% | – |
| CC(C(=O)Nc1ccc2oc(-c3ccncc3)nc2c1)c1ccccc1 (centres unmarked) [MMV688471] | – | – | – | – | 26% | 20% | 19% | 15% | – |
| CC(Oc1cccc(Cl)c1)C(=O)Nc1ccc2oc(-c3ccncc3)nc2c1 (centres unmarked) [MMV688472] | – | – | – | – | 13% | 14% | 17% | 14% | – |
| COc1cc(C2=NCCN2)ccc1-n1cc(-c2cccc(C3=NCCN3)c2)nn1 [MMV688474] | 10% | 30% | 2.4% | 13% | – | – | – | – | – |
| CC(=O)NCC1CN(c2ccc(-c3ccc(CO)cc3)c(F)c2)C(=O)O1 (centres unmarked) [MMV688508] | – | – | – | – | -0.7% | -5% | -0.1% | -2% | – |
| O=C(OCc1ccccc1)N1CCC(c2cc(-c3ccncc3)c(-c3ccc(F)cc3)[nH]2)CC1 [MMV688509] | -13% | -13% | -3.8% | 3.8% | – | – | – | – | – |
| N=C(N)c1ccc(-c2cc(-c3ccccc3)on2)cc1 [MMV688514] | – | – | – | – | 20% | -6.6% | 14% | 13% | – |
| CC(C)(C)C(=O)N(CCCCCCN1C[C@H](O)[C@@H](O)[C@H](O)[C@H]1CO)C1CCCCCC1 [MMV688543] | – | – | – | – | – | – | – | – | TbrCatL Inhibition 0’ [1, 3]: -7%; TbrCatL Inhibition 10’ [1, 4]: 1.7%; Cruzain Inhibition 0’ [2, 3]: -1.2%; Cruzain Inhibition 10’ [2, 4]: 7.5% |
| COc1ccc(C2=NCCN2)cc1-c1cn(-c2cccc(C3=NCCN3)c2)nn1 [MMV688547] | – | – | – | – | 6% | 4% | 10% | 13% | – |
| CC(C)(C)n1nc(-c2ccccc2)c2c(N)ncnc21 [MMV688548] | – | – | – | – | 20% | 12% | 8% | 10% | – |
| CCc1ccccc1-n1c(C)cn2c3c(=O)n(C(C(=O)OC)C(C)C)c(=O)n(C)c3nc12 (centres unmarked) [MMV688550] | – | – | – | – | – | – | – | – | TbrCatL Inhibition 0’ [1, 3]: -16%; TbrCatL Inhibition 10’ [1, 4]: 0.4%; Cruzain Inhibition 0’ [2, 3]: -4.3%; Cruzain Inhibition 10’ [2, 4]: 3.2% |
